Target: human F508del-CFTR (Homo sapiens, UniProt P13569, DEL508-508)
Assay: F508del-CFTR cell surface expression (corrector activity), DiscoveRx ß-galactosidase complementation chemiluminescence assay in recombinant U2OS cell line;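 also: U2OS cells co-expressing ProLink-tagged F508del-CFTR and a membrane-anchored enzyme acceptor, where more surface CFTR restores β-galactosidase activity measured by chemiluminescence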
Details: for EC50: EC50, F508del-CFTR cell surface expression
[1] = U2OS cells, 16h compound incubation, geomean values
[2] = U2OS, in relation to Emax of corrector lumacaftor (=100%), arithmetic mean values
[3] = U2OS cell line, 16h compound incubation, geomean values
[4] = U2OS, in relation to the Emax of the corrector lumacaftor (=100%), U2OS cell line, 16h compound incubation, arithmetic mean values
[5] = U2OS cells, 16h compound incubation, geomean of several measurements
[6] = U2OS, in relation to the Emax of the corrector lumacaftor (=100%), U2OS cells, 16h compound incubation, arithmetic mean

Chain of human F508del-CFTR (P13569 with tags, fused parts or gaps DEL508-508): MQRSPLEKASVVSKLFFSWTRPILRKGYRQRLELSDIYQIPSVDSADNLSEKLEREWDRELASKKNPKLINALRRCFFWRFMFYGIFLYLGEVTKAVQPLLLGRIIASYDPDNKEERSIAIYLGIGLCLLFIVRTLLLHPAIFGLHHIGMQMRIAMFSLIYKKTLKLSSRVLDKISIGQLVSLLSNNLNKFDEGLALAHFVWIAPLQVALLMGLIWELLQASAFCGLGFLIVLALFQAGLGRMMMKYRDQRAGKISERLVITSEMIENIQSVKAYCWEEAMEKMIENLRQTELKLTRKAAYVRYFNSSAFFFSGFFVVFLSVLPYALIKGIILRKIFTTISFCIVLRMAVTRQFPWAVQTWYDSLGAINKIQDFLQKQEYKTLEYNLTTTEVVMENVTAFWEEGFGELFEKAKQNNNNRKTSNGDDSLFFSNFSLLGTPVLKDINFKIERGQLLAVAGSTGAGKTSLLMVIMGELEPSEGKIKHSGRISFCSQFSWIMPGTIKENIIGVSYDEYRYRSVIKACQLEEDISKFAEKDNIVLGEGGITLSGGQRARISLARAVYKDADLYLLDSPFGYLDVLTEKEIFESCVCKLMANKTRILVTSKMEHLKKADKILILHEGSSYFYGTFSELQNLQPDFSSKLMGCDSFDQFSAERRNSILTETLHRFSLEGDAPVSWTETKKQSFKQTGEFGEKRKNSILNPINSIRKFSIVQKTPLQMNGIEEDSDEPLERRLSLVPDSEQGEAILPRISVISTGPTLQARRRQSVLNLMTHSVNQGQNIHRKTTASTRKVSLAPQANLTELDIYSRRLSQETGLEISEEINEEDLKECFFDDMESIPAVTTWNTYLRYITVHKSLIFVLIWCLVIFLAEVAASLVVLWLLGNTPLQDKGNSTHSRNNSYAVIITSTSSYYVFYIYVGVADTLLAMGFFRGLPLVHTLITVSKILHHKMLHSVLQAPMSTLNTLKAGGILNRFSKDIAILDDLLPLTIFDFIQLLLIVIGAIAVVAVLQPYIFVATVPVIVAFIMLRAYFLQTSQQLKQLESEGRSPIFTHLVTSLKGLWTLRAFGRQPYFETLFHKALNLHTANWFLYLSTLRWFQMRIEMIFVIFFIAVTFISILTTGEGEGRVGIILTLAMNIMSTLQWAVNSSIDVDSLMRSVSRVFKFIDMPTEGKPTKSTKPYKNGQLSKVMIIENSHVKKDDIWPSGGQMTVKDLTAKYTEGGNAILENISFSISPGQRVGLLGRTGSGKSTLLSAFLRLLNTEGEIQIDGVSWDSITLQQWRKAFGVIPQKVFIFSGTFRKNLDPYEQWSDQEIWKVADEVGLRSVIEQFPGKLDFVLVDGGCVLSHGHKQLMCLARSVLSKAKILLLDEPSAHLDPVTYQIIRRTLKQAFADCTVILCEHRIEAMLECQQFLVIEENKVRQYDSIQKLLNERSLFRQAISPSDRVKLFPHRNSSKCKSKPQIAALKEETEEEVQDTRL

| Compound | EC50 [1] [µM] | Emax [2] [%] | EC50 [3] [µM] | Emax [4] [%] | other results |
| --- | --- | --- | --- | --- | --- |
| COc1cccc(CCNC(=O)[C@@H]2CC(=O)N(C)[C@@H](CC(C)C)C(=O)N3CCCC[C@H]3C(=O)N[C@H](Cc3ccccc3)COc3ccc4ccccc4c3C(=O)N2)c1 [Example 604, (4aS,7R,18S,22S)-7-benzyl-22-isobutyl-N-(3-methoxyphenethyl)-21-methyl-5,16,20,23-tetraoxo-2,3,4,4a,5,6,7,8,16,17,18,19,20,21,22,23-hexadecahydro-1H-naphtho[1,2-p]pyrido[2,1-f][1]oxa[4,7,10,14]tetraazacycloheptadecine-18-carboxamide] | 0.354 | 103 |  |  |  |
| COc1cccc(CCNC(=O)[C@@H]2CC(=O)N(C)[C@@H](CC(C)C)C(=O)N(CCC3CCCCC3)CC(=O)N[C@H](Cc3ccccc3)COc3cc(C)ncc3C(=O)N2)c1 [Example 271, (3R,9S,13S)-3-benzyl-7-(2-cyclohexylethyl)-9-isobutyl-N-(3-methoxyphenethyl)-10,18-dimethyl-5,8,11,15-tetraoxo-2,3,4,5,6,7,8,9,10,11,12,13,14,15-tetradecahydropyrido[3,4-p][1]oxa[4,7,10,14]tetraazacycloheptadecine-13-carboxamide] |  |  | 0.266 | 185 |  |
| COc1nc(C)cc2c1C(=O)N[C@H](C(=O)NCCc1cc(C3CC3)no1)CC(=O)N(C)[C@@H](CC(C)C)C(=O)N1CCCC[C@@H]1C(=O)N[C@H](Cc1ccccc1)CO2 [Example 658, (7S,11S,17aR,20R)-20-benzyl-N-(2-(3-cyclopropylisoxazol-5-yl)ethyl)-11-isobutyl-4-methoxy-2,10-dimethyl-5,9,12,18-tetraoxo-5,6,7,8,9,10,11,12,15,16,17,17a,18,19,20,21-hexadecahydro-14H-dipyrido[2,1-f:3′,4′-p][1]oxa[4,7,10,14]tetraazacycloheptadecine-7-carboxamide] | 0.283 | 300 |  |  |  |
| COc1nccc2c1C(=O)N[C@H](C(=O)NCCc1cccc(C)c1)CC(=O)N(C)[C@@H](CC(C)C)C(=O)N1CCCC[C@@H]1C(=O)N[C@H](Cc1ccccc1)CO2 [Example 186, (7S,11S,17aR,20R)-20-benzyl-11-isobutyl-4-methoxy-10-methyl-N-(3-methylphenethyl)-5,9,12,18-tetraoxo-5,6,7,8,9,10,11,12,15,16,17,17a,18,19,20,21-hexadecahydro-14H-dipyrido[2,1-f:3′,4′-p][1]oxa[4,7,10,14]tetraazacycloheptadecine-7-carboxamide] |  |  | 0.644 | 209 |  |
| COc1cccc(CCNC(=O)[C@@H]2CC(=O)N(C)[C@@H](CC3CCCCC3)C(=O)N(CC[C@H]3CCCCO3)CC(=O)N[C@H](Cc3ccccc3)COc3ccc4ccccc4c3C(=O)N2)c1 (racemic) [Example 299, (3RS,7S,13R)-13-benzyl-7-(cyclohexylmethyl)-N-(3-methoxyphenethyl)-6-methyl-1,5,8,11-tetraoxo-9-(2-((SR)-tetrahydro-2H-pyran-2-yl)ethyl)-1,2,3,4,5,6,7,8,9,10,11,12,13,14-tetradecahydronaphtho[1,2-p][1]oxa[4,7,10,14]tetraazacycloheptadecine-3-carboxamide] |  |  | 0.109 | 136 |  |
| COc1cc2c(cc1OC)C(=O)N[C@H](C(=O)NCCc1ccc3c(c1)OCO3)CC(=O)N(C)[C@@H](CC(C)C)C(=O)N(C[C@@H]1CCCCO1)CC(=O)N[C@H](Cc1ccccc1)CO2 [Example 160, (3R,9S,13S)-N-(2-(benzo[d][1,3]dioxol-5-yl)ethyl)-3-benzyl-9-isobutyl-17,18-dimethoxy-10-methyl-5,8,11,15-tetraoxo-7-(((S)-tetrahydro-2H-pyran-2-yl)methyl)-2,3,4,5,6,7,8,9,10,11,12,13,14,15-tetradecahydrobenzo[p][1]oxa[4,7,10,14]tetraazacycloheptadecine-13-carboxamide] |  |  | 0.224 | 116 |  |
| CC(C)C[C@H]1C(=O)N2CCCC[C@@H]2C(=O)N[C@H](Cc2ccccc2)COc2cnc3ccc(F)cc3c2C(=O)N[C@H](C(=O)NCCc2cnn(C3CC3)n2)CC(=O)N1C [Example 665, (9S,13S,19aR,22R)-22-benzyl-N-(2-(2-cyclopropyl-2H-1,2,3-triazol-4-yl)ethyl)-5-fluoro-13-isobutyl-12-methyl-7,11,14,20-tetraoxo-7,8,9,10,11,12,13,14,17,18,19,19a,20,21,22,23-hexadecahydro-16H-pyrido[2′,1′:6,7][1]oxa[4,7,10,14]tetraazacycloheptadecino[17,16-c]quinoline-9-carboxamide] | 0.119 | 323 |  |  |  |
| COc1nccc2c1C(=O)N[C@H](C(=O)NCCc1cc(C3CC3)no1)CC(=O)N(C)[C@@H](CC(C)C)C(=O)N1CC[C@H](c3ccccc3)C[C@@H]1C(=O)N[C@H](Cc1ccccc1)CO2 [Example 673, (7S,11S,17aR,20R)-20-benzyl-N-(2-(3-cyclopropylisoxazol-5-yl)ethyl)-11-isobutyl-4-methoxy-10-methyl-5,9,12,18-tetraoxo-16-phenyl-5,6,7,8,9,10,11,12,15,16,17,17a,18,19,20,21-hexadecahydro-14H-dipyrido[2,1-f:3′,4′-p][1]oxa[4,7,10,14]tetraazacycloheptadecine-7-carboxamide] | 0.067 | 314 |  |  |  |
| COc1cc(CCNC(=O)[C@@H]2CC(=O)N(C)[C@@H](CC(C)C)C(=O)N3CCCC[C@@H]3C(=O)N[C@H](Cc3ccccc3)COc3cc(C)nc(OC)c3C(=O)N2)on1 [Example 533, (7S,11S,17aR,20R)-20-benzyl-11-isobutyl-4-methoxy-N-(2-(3-methoxyisoxazol-5-yl)ethyl)-2,10-dimethyl-5,9,12,18-tetraoxo-5,6,7,8,9,10,11,12,15,16,17,17a,18,19,20,21-hexadecahydro-14H-dipyrido[2,1-f:3′,4′-p][1]oxa[4,7,10,14]tetraazacycloheptadecine-7-carboxamide] | 0.221 | 352 |  |  |  |
| Cc1cc(CCNC(=O)[C@@H]2CC(=O)N(C)[C@@H](CC(C)C)C(=O)N3CCN(C4CC4)C[C@H]3C(=O)N[C@H](Cc3ccccc3)COc3cnc4ccccc4c3C(=O)N2)on1 [Example 403, (9S,13S,19aS,22R)-22-benzyl-18-cyclopropyl-13-isobutyl-12-methyl-N-(2-(3-methylisoxazol-5-yl)ethyl)-7,11,14,20-tetraoxo-7,8,9,10,11,12,13,14,17,18,19,19a,20,21,22,23-hexadecahydro-16H-pyrazino[2′,11:6,7][1]oxa[4,7,10,14]tetraazacycloheptadecino[17,16-c]quinoline-9-carboxamide] | 0.55 | 179 |  |  |  |
| COc1nc(C)cc2c1C(=O)N[C@H](C(=O)NC[C@@H](O)c1ccccc1)CC(=O)N(C)[C@@H](CC(C)C)C(=O)N(C)[C@H](CC(C)C)C(=O)N[C@H](Cc1ccccc1)CO2 [Example 828, (3R,6R,9S,13S)-3-benzyl-N-((S)-2-hydroxy-2-phenylethyl)-6,9-diisobutyl-16-methoxy-7,10,18-trimethyl-5,8,11,15-tetraoxo-2,3,4,5,6,7,8,9,10,11,12,13,14,15-tetradecahydropyrido[3,4-p][1]oxa[4,7,10,14]tetraazacycloheptadecine-13-carboxamide] |  |  |  |  | EC50 [5]: 0.299 µM; Emax [6]: 317% |
| Cc1nc2ccc3c(c2o1)C(=O)N[C@H](C(=O)NCCc1ccc2c(c1)OCO2)CC(=O)N(C)[C@@H](CC(C)C)C(=O)N(CCC1CCCCC1)CC(=O)N[C@H](Cc1ccccc1)CO3 [Example 379, (8R,14S,18S)-N-(2-(benzo[d][1,3]dioxol-5-yl)ethyl)-8-benzyl-12-(2-cyclohexylethyl)-14-isobutyl-2,15-dimethyl-10,13,16,20-tetraoxo-7,8,9,10,11,12,13,14,15,16,17,18,19,20-tetradecahydrooxazolo[4′,5′:5,6]benzo[1,2-p][1]oxa[4,7,10,14]tetraazacycloheptadecine-18-carboxamide] |  |  | 0.076 | 312 |  |
| CC(C)C[C@H]1C(=O)N(C)[C@@H](CC2CCC(F)(F)CC2)C(=O)N[C@H](Cc2ccccc2)COc2cnc3ccc(F)cc3c2C(=O)N[C@H](C(=O)NCCc2noc(C3CC3)n2)CC(=O)N1C [Example 539, (3S,7S,10R,13R)-13-benzyl-N-(2-(5-cyclopropyl-1,2,4-oxadiazol-3-yl)ethyl)-10-((4,4-difluorocyclohexyl)methyl)-20-fluoro-7-isobutyl-6,9-dimethyl-1,5,8,11-tetraoxo-1,2,3,4,5,6,7,8,9,10,11,12,13,14-tetradecahydro-[1]oxa[4,7,10,14]tetraazacycloheptadecino[17,16-c]quinoline-3-carboxamide] | 0.095 |  |  |  | Emax (in relation to Emax of corrector lumacaftor (=100%), arithmetic mean values): 391% |
| COc1nc(C)cc2c1C(=O)N[C@H](C(=O)NCCn1nnc(C3CC3)n1)CC(=O)N(C)[C@@H](CC(C)C)C(=O)N1CCCC[C@@H]1C(=O)N[C@H](Cc1ccccc1)CO2 [Example 835, (7S,11S,17aR,20R)-20-benzyl-N-(2-(5-cyclopropyl-2H-tetrazol-2-yl)ethyl)-11-isobutyl-4-methoxy-2,10-dimethyl-5,9,12,18-tetraoxo-5,6,7,8,9,10,11,12,15,16,17,17a,18,19,20,21-hexadecahydro-14H-dipyrido[2,1-f:3′,4′-p][1]oxa[4,7,10,14]tetraazacycloheptadecine-7-carboxamide] |  |  |  |  | EC50 [5]: 0.363 µM; Emax [6]: 326% |
| COCCCNC(=O)[C@@H]1CC(=O)N(C)[C@@H](CC(C)C)C(=O)N(CCC2CCCCC2)CC(=O)N[C@H](Cc2ccccc2)COc2cccc(OC)c2C(=O)N1 [Example 210, (3R,9S,13S)-3-benzyl-7-(2-cyclohexylethyl)-9-isobutyl-16-methoxy-N-(3-methoxypropyl)-10-methyl-5,8,11,15-tetraoxo-2,3,4,5,6,7,8,9,10,11,12,13,14,15-tetradecahydrobenzo[p][1]oxa[4,7,10,14]tetraazacycloheptadecine-13-carboxamide] |  |  | 0.352 | 108 |  |
